Values of other authors in patent US12070523B2, “Sanitization of an article using in situ electrolysis” (APPLIED BIOCIDE GMBH, priority 2022, dated 2024).

In the case of `[O-][Cl+2]([O-])O` [chlorate], the “ADI (allowable daily intake)” value (as ClO3^−) is given as 0.0024 mg/kg BW·day and the “Maximum residue level (MRL), smallest MRL used as worst-case” value (chronic exposure, Commission Regulation (EU) 2020/749) is given as 0.05 mg/kg BW·day.
